Measurements reported in US20240425529A1, “BORIC ACID DERIVATIVE” (SHOUYAO HOLDINGS (BEIJING) CO., LTD., priority 2021, published 2024).

What was measured:
LMP7 [1] = biological target: T1, LMP7 (Homo sapiens, UniProt P28062); experiment: Enzymatic inhibitory activity on LMP7 (MOLT-4 cell lysate, Ac-ANW-AMC substrate); assay type: biochemical; conditions: 1 hour pre-incubation
T1 construct: using MOLT-4 cell lysate as the enzyme source of LMP7; endogenous in cells; host or cells: MOLT-4 (human acute lymphoblastic leukemia cells)
Summary of the method: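 Enzyme source was MOLT-4 cell lysate (20 ng/μl final) in 20 mM Tris pH 8.0, 0.5 mM EDTA, preincubated 1 h at 23 °C with compound at 9 final concentrations (0–2000 nM). Ac-ANW-AMC ([…]) was then added, 2 h at 23 °C in the dark. AMC fluorescence (ex 345/em 445 nm) gave the IC50.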

[2] = Animal pharmacokinetic study in rats, single gavage; assay type: in vivo; conditions: rat, po; male rats, single gavage 5 mg/kg, plasma
Method: Three healthy adult male rats from Beijing Vital River Experimental animal Technology Co. Ltd were used for animal pharmacokinetic experiments. The compounds were suspended in 20% sulfobutyl ether-β-cyclodextrin (W/W/V) at a concentration of 1 mg/mL at a dosing volume of 5 mL/kg by single gavage at a dose of 5 mg/kg. Animals were fasted overnight before the experiment, from 10 hours before the administration to 4 hours after the administration. Blood was collected at 0.25, 0.5, 1, 2, 4, 6, 8, and 24 hours after the administration. The animals were anesthetized with isoflurane. About 0.4 mL of whole blood was collected from the orbital venous plexus using a glass blood collection tube and placed in a heparin anticoagulant tube. The sample was centrifuged at 4200 rpm for 5 min at 4° C. The plasma was transferred to a centrifuge tube and stored at −80° C. for later analysis. The plasma sample analysis used the acetonitrile protein precipitation method to extract the compound to be tested and internal standard (Warfarin or Propranolol) from rat plasma, and the extraction solution was analyzed by LC/MS/MS. The plasma concentration-time data of individual animals measured were analyzed using anon-compartmental model using the WinNonlin (version 5.2.1; Pharsight company) software, and the following pharmacokinetic parameters were obtained: maximum (peak) plasma drug concentration Cmax; Time to max Tmax; the area under the curve AUC0-inf of blood drug concentration-time from half-life T½ and extrapolation to infinite time.

β5 = biological target: T2, β5 (Homo sapiens, UniProt P28074); experiment: Enzymatic inhibitory activity on β5 (HEK-293 cell lysate, Ac-WLA-AMC substrate); assay type: biochemical; conditions: 1 hour pre-incubation
T2 construct: using HEK-293 cell lysate as the enzyme source of D5; endogenous in cells; host or cells: HEK-293 (human embryonic kidney cells)
Summary of the method: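 HEK-293 lysate (25 ng/μl final) preincubated 1 h at 23 °C with compound (9-point, 5-fold dilutions) in 20 mM Tris pH 8.0, 0.5 mM EDTA. Ac-WLA-AMC then added at 20 μM final for 2 h at 23 °C in the dark. AMC fluorescence read at Ex 345/Em 445 nm; IC50 from curve fit.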

LMP7 [3] = biological target: T1, LMP7; experiment: Cytological inhibitory activity on LMP7 in MOLT-4 cells; assay type: cell-based; conditions: incubation for 2 hours with compound, read-out: Cytological activity data LMP7 Activity (MOLT-4Cell)
Summary of the method: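 MOLT-4 cells pre-incubated 2 h with compound (8 concentrations, 5-fold dilution series from 2 mM DMSO stock, 5% FBS), washed and lysed. Lysate (20 ng/μl, 2× stock) reacted with Ac-ANW-AMC (100 μM, 2× stock) in 20 mM Tris pH 8.0, 0.5 mM EDTA, 1 h, 23 °C. Fluorescence at 345/445 nm; IC50 fitted.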

| Compound | IC50 (LMP7 [1]) [nM] | AUC(0-inf) [2] [ng·h/mL] | Cmax [2] [ng/mL] | Tmax [2] [h] | half-life [2] [h] | IC50 (β5) [nM] | IC50 (LMP7 [3]) [nM] |
| --- | --- | --- | --- | --- | --- | --- | --- |
| O=C(Nc1nccs1)C(=O)N[C@@H](Cc1coc2ccccc12)B(O)O [Ex. 25, (R)-(2-(benzofuran-3-yl)-1-(2-oxo-2-(thiazol-2-ylamino)acetamido)ethyl) boronic acid] |  | 108000 | 7710 | 0.42 | 14.4 |  |  |
| CC1(C)[C@@H]2C[C@H]3OB([C@H](Cc4coc5ccccc45)NC(=O)C(=O)Nc4ccc(F)cc4F)O[C@@]3(C)[C@H]1C2 [Ex. 54, (R)-(2-(benzofuran-3-yl)-1-(2-oxo-2-(2,4-difluorophenylamino)acetamido)ethyl)boronic acid (1S,2S,3R,5S)-(+)-pinane-2,3-diol ester] | 0.89 |  |  |  |  | 23.7 | 5.33 |
| O=C(Nc1ccc(F)cc1F)C(=O)N[C@@H](Cc1coc2ccccc12)B(O)O [Ex. 55, (R)-(2-(benzofuran-3-yl)-1-(2-oxo-2-(2,4-difluorophenylamino)acetamido)ethyl)boronic acid] | 1.43 |  |  |  |  | 54.6 | 6.84 |
| Cn1cccc(NC(=O)C(=O)N[C@@H](Cc2coc3ccccc23)B2O[C@@H]3C[C@@H]4C[C@@H](C4(C)C)[C@]3(C)O2)c1=O [Ex. 57, (R)-(2-(benzofuran-3-yl)-1-(2-oxo-2-((1-methyl-2-oxo-1,2-dihydropyridin-3-yl)amino)acetamido)ethyl)boronic acid (1S,2S,3R,5S)-(+)-pinane-2,3-diol ester] | 1.32 |  |  |  |  | 140 | 4.03 |
| Cn1cccc(NC(=O)C(=O)N[C@@H](Cc2coc3ccccc23)B(O)O)c1=O [Ex. 58, (R)-(2-(benzofuran-3-yl)-1-(2-oxo-2-((1-methyl-2-oxo-1,2-dihydropyridin-3-yl)amino)acetamido)ethyl)boronic acid] | 0.95 |  |  |  |  | 84.1 | 5.45 |
| COC(=O)C(=O)N[C@@H](Cc1coc2ccccc12)B1O[C@@H]2CC3C[C@@H](C3(C)C)[C@]2(C)O1 [Ex. 61, (R)-(2-(benzofuran-3-yl)-1-(2-oxo-2-methoxyacetamido)ethyl)boronic acid (1S,2S,3R,5S)-(+)-pinane-2,3-diol ester] | 4.27 |  |  |  |  | 722 | 46.6 |
| COC(=O)C(=O)N[C@@H](Cc1coc2ccccc12)B(O)O [Ex. 62, (R)-(2-(benzofuran-3-yl)-1-(2-oxo-2-methoxyacetamido)ethyl)boronic acid] | 7.89 |  |  |  |  | 1300 | 26.7 |
| O=C(Nc1cccnc1Cl)C(=O)N[C@@H](Cc1coc2ccccc12)B(O)O [Ex. 64, (R)-(2-(benzofuran-3-yl)-1-(2-oxo-2-((2-chloropyridin-3-yl)amino)acetamido)ethyl)boronic acid] | 2.31 |  |  |  |  | 25.4 | 1.79 |
| CC1COB([C@H](Cc2coc3ccccc23)NC(=O)C(=O)Nc2cnccn2)O1 (stereo partly drawn) [Ex. 68] | 1.24 |  |  |  |  | 34.8 | 1.1 |
| CC1(C)COB([C@H](Cc2coc3ccccc23)NC(=O)C(=O)Nc2cnccn2)OC1 [Ex. 71] | 1.18 |  |  |  |  | 28.5 | 1.35 |

The remaining compounds from weak to strong by IC50 (LMP7 [1]), led by results:

| IC50 (LMP7 [1]) [nM] | AUC(0-inf) [2] [ng·h/mL] | Cmax [2] [ng/mL] | Tmax [2] [h] | half-life [2] [h] | IC50 (β5) [nM] | IC50 (LMP7 [3]) [nM] | Compound |
| --- | --- | --- | --- | --- | --- | --- | --- |
| 15.6 | 20900 | 3800 | 1.17 | 4.2 |  |  | O=C(N[C@@H](Cc1coc2ccccc12)B(O)O)C(=O)N1CCOCC1 [Ex. 5, (R)-(2-(benzofuran-3-yl)-1-(2-morpholino-2-oxoacetamido)ethyl)boronic acid] |
| 7.48 |  |  |  |  | 88.4 | 6.39 | O=C(N[C@@H](Cc1coc2ccccc12)B(O)O)C(=O)N1CCCC(F)(F)C1 [Ex. 56, (R)-(2-(benzofuran-3-yl)-1-(2-oxo-2-(3,3-difluoropiperidin-1-yl)acetamido)ethyl)boronic acid] |
| 1.5 |  |  |  |  | 26 | 0.91 | O=C(Nc1cnccn1)C(=O)N[C@@H](Cc1coc2ccccc12)B1OCCCO1 [Ex. 70] |
| 1.46 |  |  |  |  | 21.8 | 0.98 | CC1(C)CC(C)(C)OB([C@H](Cc2coc3ccccc23)NC(=O)C(=O)Nc2cnccn2)O1 [Ex. 72] |
| 1.44 |  |  |  |  | 18.2 | 0.88 | C[C@@H]1COB([C@H](Cc2coc3ccccc23)NC(=O)C(=O)Nc2cnccn2)O1 [Ex. 69] |
